Patent publication US7361659B2, “Pyrrazolo-pyrimidine derivatives” (Hoffmann-La Roche Inc., priority 2005, dated 2008)

SMILES | melting point [°C]
Cc1nc(NC(=O)c2cnn3c(C(F)(F)F)cc(-c4ccc(C(F)(F)F)cc4)nc23)sc1S(=O)(=O)NCCO [Example 46, 7-Trifluoromethyl-5-(4-trifluoromethyl-phenyl)-pyrazolo[1,5-a]pyrimidine-3-carboxylic acid [5-(2-hydroxy-ethylsulfamoyl)-4-methyl-thiazol-2-yl]-amide] | 166
CCOc1cc(-c2cc(C(F)(F)F)n3ncc(C(=O)Nc4nc(C)c(S(=O)(=O)NC(C)(CO)CO)s4)c3n2)ccc1C(F)(F)F [Example 53, 5-(3-Ethoxy-4-trifluoromethyl-phenyl)-7-trifluoromethyl-pyrazolo[1,5-a]pyrimidine-3-carboxylic acid [5-(2-hydroxy-1-hydroxymethyl-1-methyl-ethylsulfamoyl)-4-methyl-thiazol-2-yl]-amide] | 220
CC(C)(CO)NS(=O)(=O)c1cc(NC(=O)c2cnn3c(C(F)(F)F)cc(-c4ccc(Cl)cc4)nc23)c(Cl)s1 [Example 12, 5-(4-Chloro-phenyl)-7-trifluoromethyl-pyrazolo[1,5-a]pyrimidine-3-carboxylic acid [2-chloro-5-(2-hydroxy-1,1-dimethyl-ethylsulfamoyl)-thiophen-3-yl]-amide] | 272
Cc1nc(NC(=O)c2cnn3c(C(F)F)cc(-c4ccc(C(F)(F)F)cc4)nc23)sc1S(=O)(=O)NC(C)(C)CO [Example 14, 7-Difluoromethyl-5-(4-trifluoromethyl-phenyl)-pyrazolo[1,5-a]pyrimidine-3-carboxylic acid [5-(2-hydroxy-1,1-dimethyl-ethylsulfamoyl)-4-methyl-thiazol-2-yl]-amide] | 268
Cc1nc(NC(=O)c2cnn3c(C(F)(F)F)cc(-c4ccc(Cl)c(Cl)c4)nc23)sc1S(N)(=O)=O [Example 26, 5-(3,4-Dichloro-phenyl)-7-trifluoromethyl-pyrazolo[1,5-a]pyrimidine-3-carboxylic acid (4-methyl-5-sulfamoyl-thiazol-2-yl)-amide] | 307
O=C(Nc1cc(S(=O)(=O)NCCO)sc1Cl)c1cnn2c(C(F)(F)F)cc(-c3ccc(C(F)(F)F)cc3)nc12 [Example 36, 7-Trifluoromethyl-5-(4-trifluoromethyl-phenyl)-pyrazolo[1,5-a]pyrimidine-3-carboxylic acid [2-chloro-5-(2-hydroxy-ethylsulfamoyl)-thiophen-3-yl]-amide] | 191
O=C(Nc1cc(S(=O)(=O)NC(CO)CO)sc1Cl)c1cnn2c(C(F)F)cc(-c3ccc(C(F)(F)F)cc3)nc12 [Example 28, 7-Difluoromethyl-5-(4-trifluoromethyl-phenyl)-pyrazolo[1,5-a]pyrimidine-3-carboxylic acid [2-chloro-5-(2-hydroxy-1-hydroxymethyl-ethylsulfamoyl)-thiophen-3-yl]-amide] | 241
Cc1nc(NC(=O)c2cnn3c(C(F)F)cc(-c4ccc(C(F)(F)F)cc4)nc23)sc1S(=O)(=O)NCCN(C)C [Example 57, 7-Difluoromethyl-5-(4-trifluoromethyl-phenyl)-pyrazolo[1,5-a]pyrimidine-3-carboxylic acid [5-(2-dimethylamino-ethylsulfamoyl)-4-methyl-thiazol-2-yl]-amide] | 217
Cc1nc(NC(=O)c2cnn3c(C(F)F)cc(-c4ccc(C(F)(F)F)cc4)nc23)sc1S(=O)(=O)N(CCO)CCO [Example 40, 7-Difluoromethyl-5-(4-trifluoromethyl-phenyl)-pyrazolo[1,5-a]pyrimidine-3-carboxylic acid {5-[bis-(2-hydroxy-ethyl)-sulfamoyl]-4-methyl-thiazol-2-yl}-amide] | 191
Cc1nc(NC(=O)c2cnn3c(C(F)(F)F)cc(-c4ccc(C(F)(F)F)cc4)nc23)sc1S(=O)(=O)N1CCN(C)CC1 [Example 69, 7-Trifluoromethyl-5-(4-trifluoromethyl-phenyl)-pyrazolo[1,5-a]pyrimidine-3-carboxylic acid [4-methyl-5-(4-methyl-piperazine-1-sulfonyl)-thiazol-2-yl]-amide] | 273
Cc1nc(NC(=O)c2cnn3c(C(F)F)cc(-c4ccc(C(F)(F)F)cc4)nc23)sc1S(=O)(=O)NC(CO)CO [Example 63, 7-Difluoromethyl-5-(4-trifluoromethyl-phenyl)-pyrazolo[1,5-a]pyrimidine-3-carboxylic acid [5-(2-hydroxy-1-hydroxymethyl-ethylsulfamoyl)-4-methyl-thiazol-2-yl]-amide] | 217
Cc1nc(NC(=O)c2cnn3c(C(F)(F)F)cc(-c4ccc(C(F)(F)F)c(OCC(F)(F)F)c4)nc23)sc1S(=O)(=O)NC(C)(C)CO [Example 32, 5-[3-(2,2,2-Trifluoro-ethoxy)-4-trifluoromethyl-phenyl]-7-trifluoromethyl-pyrazolo[1,5-a]pyrimidine-3-carboxylic acid [5-(2-hydroxy-1,1-dimethyl-ethylsulfamoyl)-4-methyl-thiazol-2-yl]-amide] | 275
Cc1cc(-c2cc(C(F)F)n3ncc(C(=O)Nc4nc(C)c(S(N)(=O)=O)s4)c3n2)ccc1C(F)(F)F [Example 33, 7-Difluoromethyl-5-(3-methyl-4-trifluoromethyl-phenyl)-pyrazolo[1,5-a]pyrimidine-3-carboxylic acid (4-methyl-5-sulfamoyl-thiazol-2-yl)-amide] | 307
NS(=O)(=O)c1cc(NC(=O)c2cnn3c(C(F)(F)F)cc(-c4ccc(Cl)cc4)nc23)c(Cl)s1 [Example 9, 5-(4-Chloro-phenyl)-7-trifluoromethyl-pyrazolo[1,5-a]pyrimidine-3-carboxylic acid (2-chloro-5-sulfamoyl-thiophen-3-yl)-amide] | 329
CN(CCO)S(=O)(=O)c1cc(NC(=O)c2cnn3c(C(F)(F)F)cc(-c4ccc(C(F)(F)F)cc4)nc23)c(Cl)s1 [Example 77, 7-Trifluoromethyl-5-(4-trifluoromethyl-phenyl)-pyrazolo[1,5-a]pyrimidine-3-carboxylic acid {2-chloro-5-[(2-hydroxy-ethyl)-methyl-sulfamoyl]-thiophen-3-yl}-amide] | 221
NS(=O)(=O)c1cnc(NC(=O)c2cnn3c(C(F)F)cc(-c4ccc(C(F)(F)F)cc4)nc23)s1 [Example 52, 7-Difluoromethyl-5-(4-trifluoromethyl-phenyl)-pyrazolo[1,5-a]pyrimidine-3-carboxylic acid (5-sulfamoyl-thiazol-2-yl)-amide] | 311
Cc1nc(NC(=O)c2cnn3c(C4CC4)cc(-c4ccc(Cl)cc4)nc23)sc1S(=O)(=O)NC(C)(C)CO [Example 62, 5-(4-Chloro-phenyl)-7-cyclopropyl-pyrazolo[1,5-a]pyrimidine-3-carboxylic acid [5-(2-hydroxy-1,1-dimethyl-ethylsulfamoyl)-4-methyl-thiazol-2-yl]-amide] | 293 to 294
CC(C)(CO)NS(=O)(=O)c1cc(NC(=O)c2cnn3c(C(F)F)cc(-c4ccc(C(F)(F)F)cc4)nc23)c(Cl)s1 [Example 5, 7-Difluoromethyl-5-(4-trifluoromethyl-phenyl)-pyrazolo[1,5-a]pyrimidine-3-carboxylic acid [2-chloro-5-(2-hydroxy-1,1-dimethyl-ethylsulfamoyl)-thiophen-3-yl]-amide] | 233
Cc1nc(NC(=O)c2cnn3c(C(F)F)cc(-c4ccc(C(F)(F)F)cc4)nc23)sc1S(=O)(=O)N(C)CCO [Example 70, 7-Difluoromethyl-5-(4-trifluoromethyl-phenyl)-pyrazolo[1,5-a]pyrimidine-3-carboxylic acid {5-[(2-hydroxy-ethyl)-methyl-sulfamoyl]-4-methyl-thiazol-2-yl}-amide] | 216
CN(C)CCNS(=O)(=O)c1cc(NC(=O)c2cnn3c(C(F)(F)F)cc(-c4ccc(C(F)(F)F)cc4)nc23)c(Cl)s1 [Example 55, 7-Trifluoromethyl-5-(4-trifluoromethyl-phenyl)-pyrazolo[1,5-a]pyrimidine-3-carboxylic acid [2-chloro-5-(2-dimethylamino-ethylsulfamoyl)-thiophen-3-yl]-amide] | 198
O=C(Nc1cc(S(=O)(=O)N(CCO)CCO)sc1Cl)c1cnn2c(C(F)F)cc(-c3ccc(C(F)(F)F)cc3)nc12 [Example 34, 7-Difluoromethyl-5-(4-trifluoromethyl-phenyl)-pyrazolo[1,5-a]pyrimidine-3-carboxylic acid {5-[bis-(2-hydroxy-ethyl)-sulfamoyl]-2-chloro-thiophen-3-yl}-amide] | 216
CC(CO)(CO)NS(=O)(=O)c1cc(NC(=O)c2cnn3c(C(F)(F)F)cc(-c4ccc(C(F)(F)F)cc4)nc23)c(Cl)s1 [Example 38, 7-Trifluoromethyl-5-(4-trifluoromethyl-phenyl)-pyrazolo[1,5-a]pyrimidine-3-carboxylic acid [2-chloro-5-(2-hydroxy-1-hydroxymethyl-1-methyl-ethylsulfamoyl)-thiophen-3-yl]-amide] | 201
O=C(Nc1cc(S(=O)(=O)N2CCC(O)C2)sc1Cl)c1cnn2c(C(F)(F)F)cc(-c3ccc(C(F)(F)F)cc3)nc12 (racemic) [Example 67, 7-Trifluoromethyl-5-(4-trifluoromethyl-phenyl)-pyrazolo[1,5-a]pyrimidine-3-carboxylic acid [(RS)-2-chloro-5-(3-hydroxy-pyrrolidine-1-sulfonyl)-thiophen-3-yl]-amide] | 270
Cc1nc(NC(=O)c2cnn3c(C(F)(F)F)cc(-c4ccc(C(F)(F)F)cc4)nc23)sc1S(=O)(=O)NCCN(C)C [Example 58, 7-Trifluoromethyl-5-(4-trifluoromethyl-phenyl)-pyrazolo[1,5-a]pyrimidine-3-carboxylic acid [5-(2-dimethylamino-ethylsulfamoyl)-4-methyl-thiazol-2-yl]-amide] | 235
Cc1cc(-c2cc(C(F)(F)F)n3ncc(C(=O)Nc4cc(S(N)(=O)=O)sc4Cl)c3n2)ccc1C(F)(F)F [Example 11, 5-(3-Methyl-4-trifluoromethyl-phenyl)-7-trifluoromethyl-pyrazolo[1,5-a]pyrimidine-3-carboxylic acid (2-chloro-5-sulfamoyl-thiophen-3-yl)-amide] | 283
